Experiments:
MCF7 = test: cells; settings: Homo sapiens, MCF7, 72 h
Description: Antiproliferative activity against human MCF7 cells assessed as reduction in cell viability incubated for 72 hrs by CCK8 assay

Cytochrome P450 3A4 = Cytochrome P450 3A4 (Homo sapiens, UniProt P08684); test: Inhibition of CYP3A4 in human liver microsomes at 10 uM by LC-MS/MS analysis; type: ADME
MGC-803 [1] = test: cells; settings: Homo sapiens, MGC-803, 72 h
Description: Antiproliferative activity against human MGC-803 cells assessed as reduction in cell viability incubated for 72 hrs by CCK8 assay

NCI-H460 [2] = test: Induction of apoptosis in human NCI-H460 cells assessed as early apoptotic cells at 3 uM incubated for 48 hrs by AnnexinV-FITC/propidium iodide staining based flow cytometric analysis (reference value: 2.22%); type: functional
Cytochrome P450 2D6 = Cytochrome P450 2D6 (Homo sapiens, UniProt P10635); test: Inhibition of CYP2D6 in human liver microsomes at 10 uM by LC-MS/MS analysis; type: ADME
THLE-2 = test: cells; settings: Homo sapiens, THLE-2, 72 h
Description: Cytotoxicity against human THLE-2 cells assessed as reduction in cell viability incubated for 72 hrs by CCK8 assay

Cytochrome P450 1A2 = molecular target: T1, Cytochrome P450 1A2 (Homo sapiens, UniProt P05177); test: Inhibition of CYP1A2 in human liver microsomes at 10 uM by LC-MS/MS analysis; type: ADME
T1 sequence (P05177 whole entry): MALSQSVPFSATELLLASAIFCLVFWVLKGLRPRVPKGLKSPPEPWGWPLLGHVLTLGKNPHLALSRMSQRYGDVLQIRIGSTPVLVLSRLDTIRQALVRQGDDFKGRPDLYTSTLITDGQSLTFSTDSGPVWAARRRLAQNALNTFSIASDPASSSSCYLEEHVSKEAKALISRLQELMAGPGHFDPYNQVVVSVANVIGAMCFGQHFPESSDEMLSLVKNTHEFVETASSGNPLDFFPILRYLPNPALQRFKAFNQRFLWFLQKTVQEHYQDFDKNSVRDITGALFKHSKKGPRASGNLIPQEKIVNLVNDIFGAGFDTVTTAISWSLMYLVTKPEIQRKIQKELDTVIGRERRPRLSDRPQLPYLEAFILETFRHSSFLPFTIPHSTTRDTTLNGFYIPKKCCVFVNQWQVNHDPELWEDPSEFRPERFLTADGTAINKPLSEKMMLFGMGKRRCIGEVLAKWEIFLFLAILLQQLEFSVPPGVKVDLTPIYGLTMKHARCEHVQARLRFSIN

NCI-H460 [3] = test: Inhibition of cell migration in human NCI-H460 cells assessed as reduction in cell migration measured after 48 hrs by wound healing assay; type: functional, cell-based; settings: dose 0.3-1.2 µM
NCI-H460 [4] = test: Induction of apoptosis in human NCI-H460 cells assessed as early apoptotic cells at 2 uM incubated for 48 hrs by AnnexinV-FITC/propidium iodide staining based flow cytometric analysis (reference value: 2.22%); type: functional
NCI-H460 [5] = test: Induction of apoptosis in human NCI-H460 cells assessed as late apoptotic cells at 3 uM incubated for 48 hrs by AnnexinV-FITC/propidium iodide staining based flow cytometric analysis (reference value: 1.36%); type: functional
Cytochrome P450 2C19 = Cytochrome P450 2C19 (Homo sapiens, UniProt P33261); test: Inhibition of CYP2C19 in human liver microsomes at 10 uM by LC-MS/MS analysis; type: ADME
A549 = test: cells; settings: Homo sapiens, A549, 72 h
Description: Antiproliferative activity against human A549 cells assessed as reduction in cell viability incubated for 72 hrs by CCK8 assay

NCI-H460 [6] = test: Inhibition of cell migration in human NCI-H460 assessed as reduction in cell migration at 0.3 to 1.2 uM by wound healing assay; type: functional, cell-based; settings: dose 0.3-1.2 µM, time 24-48 hrs, TDE = time-dependent effect
[7] = Microsomal stability in human liver microsomes assessed as parent compound remaining after 60 mins in absence of NADPH regenerating system by LC-MS/MS analysis; type: ADME, Microsome; settings: read-out: Stabilty
[8] = Metabolic stability in human liver assessed as intrinsic clearance by LC-MS/MS analysis; type: ADME, tissue-based; settings: read-out: CLH
NCI-H460 [9] = test: Induction of apoptosis in human NCI-H460 cells assessed as late apoptotic cells at 1 uM incubated for 48 hrs by AnnexinV-FITC/propidium iodide staining based flow cytometric analysis (reference value: 1.36%); type: functional
NCI-H460 [10] = test: Induction of apoptosis in human NCI-H460 cells assessed as early apoptotic cells at 1 uM incubated for 48 hrs by AnnexinV-FITC/propidium iodide staining based flow cytometric analysis (reference value: 2.22%); type: functional
[11] = Metabolic stability in human liver microsome assessed as intrinsic clearance by LC-MS/MS analysis; type: ADME; settings: liver microsomes, read-out: CLH
Cytochrome P450 2C9 = Cytochrome P450 2C9 (Homo sapiens, UniProt P11712); test: Inhibition of CYP2C9 in human liver microsomes at 10 uM by LC-MS/MS analysis; type: ADME
[12] = Metabolic stability in human liver microsomes assessed as half-life by LC-MS/MS analysis; type: ADME, Microsome
[13] = Microsomal stability in human liver microsomes assessed as parent compound remaining after 60 mins in presence of NADPH regenerating system by LC-MS/MS analysis; type: ADME, Microsome; settings: read-out: Stabilty
NCI-H460 [14] = test: Induction of apoptosis in human NCI-H460 cells assessed as late apoptotic cells at 2 uM incubated for 48 hrs by AnnexinV-FITC/propidium iodide staining based flow cytometric analysis (reference value: 1.36%); type: functional
THP-1 = test: cells; settings: Homo sapiens, THP-1, 72 h
Description: Antiproliferative activity against human THP-1 cells assessed as reduction in cell viability incubated for 72 hrs by CCK8 assay

NCI-H460 [15] = test: cells; settings: Homo sapiens, NCI-H460, 72 h
Description: Antiproliferative activity against human NCI-H460 cells assessed as reduction in cell viability incubated for 72 hrs by CCK8 assay

[16] = molecular target: T2, Amine oxidase [flavin-containing] B (Homo sapiens, UniProt P27338); test: Inhibition of N-terminal FLAG-tagged human recombinant MAO-B expressed in baculovirus-infected Sf9 cells by […]
T2 sequence (P27338 whole entry): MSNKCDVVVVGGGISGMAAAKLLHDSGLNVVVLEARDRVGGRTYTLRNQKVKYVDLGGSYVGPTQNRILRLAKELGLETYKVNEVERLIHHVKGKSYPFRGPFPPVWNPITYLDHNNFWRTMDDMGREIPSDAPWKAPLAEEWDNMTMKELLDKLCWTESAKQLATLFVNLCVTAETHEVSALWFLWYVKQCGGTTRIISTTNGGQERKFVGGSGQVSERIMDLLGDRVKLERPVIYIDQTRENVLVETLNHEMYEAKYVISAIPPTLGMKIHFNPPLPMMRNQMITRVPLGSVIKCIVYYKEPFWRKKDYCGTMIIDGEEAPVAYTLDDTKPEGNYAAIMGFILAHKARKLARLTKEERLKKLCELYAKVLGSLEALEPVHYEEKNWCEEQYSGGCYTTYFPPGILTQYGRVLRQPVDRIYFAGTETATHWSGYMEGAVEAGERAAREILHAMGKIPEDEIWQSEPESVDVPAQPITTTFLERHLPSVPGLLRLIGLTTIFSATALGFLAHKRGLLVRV

NCI-H460 [17] = test: Antitumor activity against human NCI-H460 cells xenografted in BALB/c mouse assessed as reduction in tumor weight at 20 mg/kg/day, ip for 15 days; type: functional; settings: 360 h, time 15 day
[18] = molecular target: T3, Amine oxidase [flavin-containing] A (Homo sapiens, UniProt P21397); test: Inhibition of N-terminal FLAG-tagged human recombinant MAO-A expressed in baculovirus-infected Sf9 cells by […]
T3 sequence (P21397 whole entry): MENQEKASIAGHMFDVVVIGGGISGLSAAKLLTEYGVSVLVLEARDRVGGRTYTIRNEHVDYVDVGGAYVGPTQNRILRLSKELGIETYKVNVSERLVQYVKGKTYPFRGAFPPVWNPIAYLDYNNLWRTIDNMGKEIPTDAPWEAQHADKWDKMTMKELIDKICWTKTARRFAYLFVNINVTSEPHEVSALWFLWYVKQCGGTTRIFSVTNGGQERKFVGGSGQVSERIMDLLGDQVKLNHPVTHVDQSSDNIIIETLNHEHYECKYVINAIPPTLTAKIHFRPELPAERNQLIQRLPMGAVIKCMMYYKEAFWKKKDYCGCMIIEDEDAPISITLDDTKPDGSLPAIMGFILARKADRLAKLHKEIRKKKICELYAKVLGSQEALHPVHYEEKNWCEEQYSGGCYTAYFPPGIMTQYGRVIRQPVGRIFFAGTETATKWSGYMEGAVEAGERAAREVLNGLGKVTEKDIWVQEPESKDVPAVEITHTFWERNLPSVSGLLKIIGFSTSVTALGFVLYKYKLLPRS

NCI-H460 [19] = test: Antitumor activity against human NCI-H460 cells xenografted in BALB/c mouse assessed as reduction in tumor volume at 20 mg/kg/day, ip for 15 days; type: functional; settings: 360 h, time 15 day
[20] = Toxicity in BALB/c mouse xenografted with human NCI-H460 cells assessed as body weight at 10 to 20 mg/kg/day, ip for 15 days and measured every 3 days; type: organism-based; settings: in vivo, 360 h, dose 10-20 mg/kg/day, time 15 day
MGC-803 [21] = test: Antiproliferative activity against human MGC-803 cells assessed as inhibition of cell growth by MTT assay; type: functional, cell-based
[22] = molecular target: Lysine-specific histone demethylase 1A (Homo sapiens, UniProt O60341); test: Inhibition of human recombinant LSD1 by horseradish peroxidase-coupled fluorometric assay

Cytochrome P450 2D6, sequence (P10635 whole entry): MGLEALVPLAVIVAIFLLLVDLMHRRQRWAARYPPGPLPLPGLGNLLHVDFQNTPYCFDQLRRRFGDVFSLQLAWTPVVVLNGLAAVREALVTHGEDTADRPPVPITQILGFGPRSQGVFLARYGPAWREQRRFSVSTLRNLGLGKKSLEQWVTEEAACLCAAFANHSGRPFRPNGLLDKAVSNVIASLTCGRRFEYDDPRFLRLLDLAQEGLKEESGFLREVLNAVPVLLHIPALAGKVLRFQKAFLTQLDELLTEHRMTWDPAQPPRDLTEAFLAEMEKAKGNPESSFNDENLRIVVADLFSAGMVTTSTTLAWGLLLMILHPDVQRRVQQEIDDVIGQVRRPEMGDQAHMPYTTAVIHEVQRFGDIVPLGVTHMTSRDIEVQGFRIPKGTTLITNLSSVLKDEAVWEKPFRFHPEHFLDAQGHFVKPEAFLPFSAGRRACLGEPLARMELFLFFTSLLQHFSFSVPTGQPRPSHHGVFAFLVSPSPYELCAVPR
Cytochrome P450 2C9, sequence (P11712 whole entry): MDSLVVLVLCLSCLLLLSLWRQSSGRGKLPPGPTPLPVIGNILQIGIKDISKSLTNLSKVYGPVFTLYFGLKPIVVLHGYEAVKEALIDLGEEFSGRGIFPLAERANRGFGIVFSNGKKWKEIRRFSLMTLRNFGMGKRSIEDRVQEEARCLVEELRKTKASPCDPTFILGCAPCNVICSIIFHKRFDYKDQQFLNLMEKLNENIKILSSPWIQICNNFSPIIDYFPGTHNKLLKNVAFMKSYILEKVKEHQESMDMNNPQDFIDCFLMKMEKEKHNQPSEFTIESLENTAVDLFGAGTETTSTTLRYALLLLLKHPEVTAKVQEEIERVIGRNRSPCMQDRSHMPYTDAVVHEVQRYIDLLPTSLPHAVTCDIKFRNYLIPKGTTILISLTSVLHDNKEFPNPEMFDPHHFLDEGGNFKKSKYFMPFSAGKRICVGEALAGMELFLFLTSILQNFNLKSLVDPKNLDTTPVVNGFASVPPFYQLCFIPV
Cytochrome P450 2C19, sequence (P33261 whole entry): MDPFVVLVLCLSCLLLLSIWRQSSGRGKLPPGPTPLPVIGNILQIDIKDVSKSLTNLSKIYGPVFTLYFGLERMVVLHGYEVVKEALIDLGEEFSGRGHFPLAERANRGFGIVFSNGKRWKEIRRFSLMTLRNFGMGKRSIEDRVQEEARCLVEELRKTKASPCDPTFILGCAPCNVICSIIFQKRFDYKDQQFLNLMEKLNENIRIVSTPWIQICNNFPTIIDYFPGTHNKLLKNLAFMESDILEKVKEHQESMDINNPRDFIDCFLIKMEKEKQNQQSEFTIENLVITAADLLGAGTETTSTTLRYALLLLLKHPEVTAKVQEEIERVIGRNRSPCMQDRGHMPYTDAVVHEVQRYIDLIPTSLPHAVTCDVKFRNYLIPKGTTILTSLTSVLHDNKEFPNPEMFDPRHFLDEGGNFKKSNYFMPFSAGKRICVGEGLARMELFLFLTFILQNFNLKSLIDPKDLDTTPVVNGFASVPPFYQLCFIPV
Cytochrome P450 3A4, sequence (P08684 whole entry): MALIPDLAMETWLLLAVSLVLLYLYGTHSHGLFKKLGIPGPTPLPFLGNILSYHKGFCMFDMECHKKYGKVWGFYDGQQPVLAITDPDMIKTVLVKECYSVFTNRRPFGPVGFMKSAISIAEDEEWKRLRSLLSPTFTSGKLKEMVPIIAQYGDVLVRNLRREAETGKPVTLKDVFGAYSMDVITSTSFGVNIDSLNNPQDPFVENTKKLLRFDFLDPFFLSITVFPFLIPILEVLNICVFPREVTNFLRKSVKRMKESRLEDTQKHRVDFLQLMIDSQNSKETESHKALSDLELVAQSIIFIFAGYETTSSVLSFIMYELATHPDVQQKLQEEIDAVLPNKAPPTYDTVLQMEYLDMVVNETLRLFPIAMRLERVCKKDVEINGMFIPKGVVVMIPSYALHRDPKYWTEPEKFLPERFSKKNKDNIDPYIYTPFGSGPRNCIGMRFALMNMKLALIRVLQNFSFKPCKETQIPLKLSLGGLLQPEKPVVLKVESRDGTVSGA

Row | Structure (SMILES) | IC50 (MCF7) | inhibition (INH) (Cytochrome P450 3A4) | IC50 (MGC-803 [1]) | inhibition (INH) (Cytochrome P450 2D6) | IC50 (THLE-2) | inhibition (INH) (Cytochrome P450 1A2) | inhibition (INH) (Cytochrome P450 2C19) | IC50 (A549) | remaining at 1 h [7] | CLint scaled [8] | microsomal CLint [11] | inhibition (INH) (Cytochrome P450 2C9) | half-life [12] | remaining at 1 h [13] | IC50 (THP-1) | IC50 (NCI-H460 [15]) | IC50 [16] | IC50 [18] | other results
1 | Cc1ccc(-c2ncc(OCC3CCNCC3)cc2-c2ccc(C#N)cc2)cc1 | 16.9 µM | Active | 12.4 µM | Active | 7.83 µM | Active | Active | 9.73 µM | 88.6% | 11.7 mL/min/kg | 13 µL/min/mg | Active | 1.78 h | 67.5% | 34 µM | – | – | – | Activity (NCI-H460 [2]): 1.6%; inhibition (NCI-H460 [3]): Dose-Dependent Effect; Activity (NCI-H460 [4]): 1.29%; Activity (NCI-H460 [5]): 1.21%; inhibition (NCI-H460 [6]): Tde; Activity (NCI-H460 [9]): 1.12%; Activity (NCI-H460 [10]): 1.49%; Activity (NCI-H460 [14]): 0.9%
2 | Cc1ccc(-c2cc3occ(CNCCN)c3cc2-c2ccc(C#N)cc2)cc1 | 5.72 µM | – | 7.55 µM | – | 3.94 µM | – | – | 2.45 µM | – | – | – | – | – | – | 6.68 µM | 1.9 µM | – | – | –
3 | Cc1ccc(-c2cc3occ(CNC4CCC(N)CC4)c3cc2-c2ccc(C#N)cc2)cc1 (centres undefined) | 4.31 µM | – | 6.27 µM | – | 1.41 µM | – | – | 6.33 µM | – | – | – | – | – | – | 7.06 µM | 1.58 µM | – | – | –
4 | Cc1ccc(-c2cc3occ(CN4CCC[C@H](N)C4)c3cc2-c2ccc(C#N)cc2)cc1 | 2.9 µM | Active | 5.85 µM | Active | 7.07 µM | Active | Active | 5.74 µM | 76.1% | – | – | Active | – | 47% | 6.15 µM | 2.06 µM | > 20 µM | > 20 µM | Activity (NCI-H460 [2]): 19.13%; inhibition (NCI-H460 [3]): Dose-Dependent Effect; Activity (NCI-H460 [4]): 6.78%; inhibition in vivo at 20 mg/kg/day (NCI-H460 [17]): 64%; Activity (NCI-H460 [5]): 11.01%; inhibition in vivo at 20 mg/kg/day (NCI-H460 [19]): 68%; inhibition (NCI-H460 [6]): Tde; Activity (NCI-H460 [9]): 0.87%; Activity (NCI-H460 [10]): 2.22%; Activity [20]: Non-Toxic; Activity (NCI-H460 [14]): 2.77%
5 | O=C(O)[C@H]1O[C@@H](Oc2cc3oc(-c4ccccc4)cc(=O)c3c(O)c2O)[C@H](O)[C@@H](O)[C@@H]1O [BAICALIN] | – | – | – | – | – | – | – | – | – | – | – | – | – | – | – | – | – | – | IC50 (MGC-803 [21]): 8.78 µM
6 | CNCCCN(C)Cc1coc2cc(-c3ccc(C)cc3)c(-c3ccc(C#N)cc3)cc12 | 3.36 µM | Active | 6.47 µM | Active | 4.2 µM | Active | Active | 4.08 µM | 55.8% | 124 mL/min/kg | 138 µL/min/mg | Active | 0.168 h | 7.9% | 4.87 µM | 1.87 µM | > 20 µM | > 20 µM | –
7 | NC1C[C@@H]1c1ccc(-c2cccc(O)c2)cc1 (single isomer, unassigned) | – | – | – | – | – | – | – | – | – | – | – | – | – | – | – | – | – | – | IC50 [22]: 40.5 µM
8 | Cc1ccc(-c2cc3occ(CNC4CCNC4)c3cc2-c2ccc(C#N)cc2)cc1 (centres undefined) | 3.29 µM | Active | 5.83 µM | Active | 4.76 µM | Active | Active | 5.5 µM | 56.7% | 13.2 mL/min/kg | 14.6 µL/min/mg | Active | 1.58 h | 65.2% | 6 µM | 2.13 µM | > 20 µM | > 20 µM | –

Source: ChEMBL document CHEMBL4825677, “Design, synthesis and biological evaluation of novel benzofuran derivatives as potent LSD1 inhibitors” (Eur J Med Chem, 2021)
